Measured values reported in PubChem BioAssay (NCI).
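All cell lines were grown in 96-well plates and treated with compound for 48 hours. The concentration for full growth arrest is given as TGI.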

Legend:
Test in all cases: inhibition of tumour cell growth, NCI panel, 48 h
[1] = test system: SK-MEL-5 melanoma
[2] = test system: DU-145 prostate
[3] = test system: MDA-MB-231 breast
[4] = test system: HT29 colon
[5] = test system: ACHN renal
[6] = test system: SNB-19 CNS
[7] = test system: SF-295 CNS
[8] = test system: NCI-H226 lung
[9] = test system: NCI-H23 lung
[10] = test system: KM12 colon
[11] = test system: A549 NSCLC
[12] = test system: OVCAR-8 ovarian
[13] = test system: MDA-MB-435
[14] = test system: RXF 393 renal
[15] = test system: LOX IMVI melanoma
[16] = test system: OVCAR-5 ovarian
[17] = test system: NCI-H522 lung
[18] = test system: SF-268 CNS
[19] = test system: UACC-62 melanoma
[20] = test system: HCT-116 colon
[21] = test system: MOLT-4 leukemia
[22] = test system: OVCAR-4 ovarian
[23] = test system: NCI-H460 lung
[24] = test system: COLO 205 colon
[25] = test system: T-47D breast
[26] = test system: PC-3 prostate
[27] = test system: HCC-2998 colon
[28] = test system: CCRF-CEM leukemia
[29] = test system: UACC-257 melanoma
[30] = test system: HOP-62 NSCLC
[31] = test system: TK-10 renal
[32] = test system: IGROV1 ovarian
[33] = test system: SF-539 CNS
[34] = test system: U251 CNS
[35] = test system: 786-0 renal
[36] = test system: SW-620 colon
[37] = test system: MDA-N
[38] = test system: SK-MEL-2 melanoma
[39] = test system: HS 578T breast
[40] = test system: BT-549 breast
[41] = test system: UO-31 renal
[42] = test system: HCT-15 colon
[43] = test system: MCF7 breast
[44] = test system: OVCAR-3 ovarian
[45] = test system: SNB-75 CNS
[46] = test system: A498 renal
[47] = test system: CAKI-1 renal
[48] = test system: M14 melanoma
[49] = test system: SK-MEL-28 melanoma
[50] = test system: SK-OV-3 ovarian
[51] = test system: HOP-92 NSCLC
[52] = test system: SR leukemia
[53] = test system: RPMI-8226 leukemia
[54] = test system: NCI/ADR-RES ovarian
[55] = test system: K-562 leukemia
[56] = test system: MALME-3M melanoma
[57] = test system: EKVX NSCLC
[58] = test system: SN12C renal

## NC(N)=N/N=C/c1ccc(O)c(C(=O)O)c1
[1]
  TGI: > 100 µM
[2]
  TGI: > 100 µM
[3]
  TGI: > 100 µM
[4]
  TGI: > 100 µM
[5]
  TGI: > 100 µM
[6]
  TGI: > 100 µM
[7]
  TGI: > 100 µM
[8]
  TGI: > 100 µM
[9]
  TGI: > 100 µM
[10]
  TGI: > 100 µM
[11]
  TGI: > 100 µM
[12]
  TGI: > 100 µM
[13]
  TGI: > 100 µM
[14]
  TGI: > 100 µM
[15]
  TGI: > 100 µM
[16]
  TGI: > 100 µM
[17]
  TGI: > 100 µM
[18]
  TGI: > 100 µM
[19]
  TGI: > 100 µM
[20]
  TGI: > 100 µM
[21]
  TGI: > 100 µM
[22]
  TGI: > 100 µM
[23]
  TGI: > 100 µM
[24]
  TGI: > 100 µM
[25]
  TGI: > 100 µM
[26]
  TGI: > 100 µM
[27]
  TGI: > 100 µM
[28]
  TGI: > 100 µM
[29]
  TGI: > 100 µM
[30]
  TGI: > 100 µM
[31]
  TGI: > 100 µM
[32]
  TGI: > 100 µM
[33]
  TGI: > 100 µM
[34]
  TGI: > 100 µM
[35]
  TGI: > 100 µM
[36]
  TGI: > 100 µM
[37]
  TGI: > 100 µM
[38]
  TGI: > 100 µM
[39]
  TGI: > 100 µM
[40]
  TGI: > 100 µM
[41]
  TGI: > 100 µM
[42]
  TGI: > 100 µM
[43]
  TGI: > 100 µM
[44]
  TGI: > 100 µM
[45]
  TGI: > 100 µM
[46]
  TGI: > 100 µM
[47]
  TGI: > 100 µM
[48]
  TGI: > 100 µM
[49]
  TGI: > 100 µM
[50]
  TGI: > 100 µM
[51]
  TGI: > 100 µM
[52]
  TGI: > 100 µM
[53]
  TGI: > 100 µM
[54]
  TGI: > 100 µM
[55]
  TGI: > 100 µM
[56]
  TGI: > 100 µM

## Cc1onc(-c2c(F)cccc2Cl)c1C(=O)N[C@@H]1C(=O)N2[C@@H]1SC(C)(C)[C@@H]2C(=O)O
[1]
  TGI: > 100 µM
[2]
  TGI: > 100 µM
[3]
  TGI: > 100 µM
[4]
  TGI: > 100 µM
[5]
  TGI: > 100 µM
[6]
  TGI: > 100 µM
[7]
  TGI: > 100 µM
[8]
  TGI: > 100 µM
[9]
  TGI: > 100 µM
[10]
  TGI: > 100 µM
[11]
  TGI: > 100 µM
[12]
  TGI: > 100 µM
[13]
  TGI: > 100 µM
[14]
  TGI: > 100 µM
[16]
  TGI: > 100 µM
[17]
  TGI: > 100 µM
[18]
  TGI: > 100 µM
[57]
  TGI: > 100 µM
[19]
  TGI: > 100 µM
[20]
  TGI: > 100 µM
[22]
  TGI: > 100 µM
[23]
  TGI: > 100 µM
[24]
  TGI: > 100 µM
[25]
  TGI: > 100 µM
[26]
  TGI: > 100 µM
[58]
  TGI: > 100 µM
[29]
  TGI: > 100 µM
[30]
  TGI: > 100 µM
[31]
  TGI: > 100 µM
[32]
  TGI: > 100 µM
[33]
  TGI: > 100 µM
[34]
  TGI: > 100 µM
[35]
  TGI: > 100 µM
[36]
  TGI: > 100 µM
[37]
  TGI: > 100 µM
[38]
  TGI: > 100 µM
[39]
  TGI: > 100 µM
[40]
  TGI: > 100 µM
[41]
  TGI: 67.4 µM
[42]
  TGI: > 100 µM
[43]
  TGI: > 100 µM
[44]
  TGI: > 100 µM
[45]
  TGI: > 100 µM
[46]
  TGI: > 100 µM
[47]
  TGI: > 100 µM
[48]
  TGI: > 100 µM
[49]
  TGI: > 100 µM
[50]
  TGI: > 100 µM
[51]
  TGI: > 100 µM
[52]
  TGI: > 100 µM
[53]
  TGI: > 100 µM
[54]
  TGI: > 100 µM
[55]
  TGI: > 100 µM
[56]
  TGI: > 100 µM
